# Assay results taken from patent US4317775A (Hoffmann-La Roche Inc., priority 1980, dated 1982).
# Counter-ions that a name gives are not always drawn.
# Columns and labels:
# E. coli = assay: In vivo activity against systemic infection in mice, E. coli; conditions: in mg/kg
# Source text: (§1) The PD50 is the protective dose for 50% of the animals treated against a challenge organism.
# [1] = tested on: Salmonella schottmuelleri; assay: In vitro activity (MIC/MBC), Salmonella schottmuelleri; format: cell-based
# Source text: (§2) MIC is the Minimum Inhibitory Concentration. MBC is the Minimum Bactericidal Concentration.
# (§3) Results reported in Table 3(a) are reported as MIC defined above and results reported in Table 3(b) are reported as MBC defined above.
# S. schottmuelleri = assay: In vivo activity against systemic infection in mice, S. schottmuelleri
# Source text: as §1
# Streptococcus pyogenes = assay: In vitro activity (MIC/MBC), Streptococcus pyogenes; format: cell-based; conditions: for MBC: read-out: Minimum Inhibitory Concentration (MBC); for MIC: read-out: Minimum Inhibitory Concentration (MIC)
# Source text: as §2, §3
# Salmonella typhosa = assay: In vitro activity (MIC/MBC), Salmonella typhosa; format: cell-based; conditions: Salmonella enterica
# Source text: as §2, §3
# S. pneumoniae I = assay: In vivo activity against systemic infection in mice, S. pneumoniae I
# Source text: as §1
# [2] = tested on: Streptococcus pneumoniae I; assay: In vitro activity (MIC/MBC), Streptococcus pneumoniae I; format: cell-based
# Source text: as §2, §3
# Klebsiella pneumoniae = assay: In vitro activity (MIC/MBC), Klebsiella pneumoniae; format: cell-based; conditions: for MBC: read-out: Minimum Inhibitory Concentration (MBC); for MIC: read-out: Minimum Inhibitory Concentration (MIC)
# Source text: as §2, §3
# S. typhosa = assay: In vivo activity against systemic infection in mice, S. typhosa
# Source text: as §1
# Staphylococcus aureus = assay: In vitro activity (MIC/MBC), Staphylococcus aureus; format: cell-based; conditions: for MBC: read-out: Minimum Inhibitory Concentration (MBC); for MIC: read-out: Minimum Inhibitory Concentration (MIC)
# Source text: as §2, §3
# in vivo = conditions: mouse
# Escherichia coli = assay: In vitro activity (MIC/MBC), Escherichia coli; format: cell-based; conditions: for MBC: read-out: Minimum Inhibitory Concentration (MBC); for MIC: read-out: Minimum Inhibitory Concentration (MIC)
# Source text: as §2, §3
# S. pyogenes = assay: In vivo activity against systemic infection in mice, S. pyogenes
# Source text: as §1
# K. pneumoniae = assay: In vivo activity against systemic infection in mice, K. pneumoniae; conditions: in mg/kg
# Source text: as §1
# P. mirabilis = assay: In vivo activity against systemic infection in mice, P. mirabilis; conditions: in mg/kg
# Source text: as §1
# S. aureus = assay: In vivo activity against systemic infection in mice, S. aureus; conditions: in mg/kg
# Source text: as §1
# [3] = tested on: Streptococcus pneumonia II; assay: In vitro activity (MIC/MBC), Streptococcus pneumonia II; format: cell-based; conditions: Streptococcus pneumoniae
# Source text: as §2, §3
# S. pneumoniae II = assay: In vivo activity against systemic infection in mice, S. pneumoniae II
# Source text: as §1
# [4] = MBC, read-out: Minimum Inhibitory Concentration (MBC)
# [5] = read-out: Minimum Inhibitory Concentration (MIC)
SMILES,PD50 (E. coli; oral),PD50 (E. coli; subcutaneous),MBC (Streptococcus pyogenes),MIC (Streptococcus pyogenes),PD50 (S. pneumoniae I; oral),PD50 (S. pneumoniae I; subcutaneous),MBC (Klebsiella pneumoniae),MIC (Klebsiella pneumoniae),MBC (Staphylococcus aureus),MIC (Staphylococcus aureus),LD50 (in vivo; ip),LD50 (in vivo; po),LD50 (in vivo; sc),MBC (Escherichia coli),MIC (Escherichia coli),PD50 (S. pyogenes; oral),PD50 (S. pyogenes; subcutaneous),PD50 (K. pneumoniae; oral),PD50 (K. pneumoniae; subcutaneous),other results
"CC1(C)S[C@@H]2[C@H](NC(=O)[C@H](NC3CCCO3)c3ccc(O)cc3)C(=O)N2[C@H]1C(=O)O (relative stereo) [Compound I, {2S-[2α,5α,6β(S*)]}-6-{[2-tetrahydrofuranylamino(4-hydroxyphenyl)acetyl]amino}-3,3-dimethyl-7-oxo-4-thia-1-azabicyclo[3.2.0]heptane-2-carboxylic acid sodium salt]",23.8,8.2,2.84 µg/mL,0.022 µg/mL,1.5 mg/kg,0.7 mg/kg,0.71 µg/mL,0.71 µg/mL,0.177 µg/mL,0.177 µg/mL,3220 mg/kg,9100 mg/kg,4550 mg/kg,5.69 µg/mL,5.69 µg/mL,3.8 mg/kg,7 mg/kg,9.9,3.8,"MBC ([1]; MBC, Salmonella schottmuelleri, read-out: Minimum Inhibitory Concentration (MBC)): 1.42 µg/mL; MIC ([1]; Salmonella, read-out: Minimum Inhibitory Concentration (MIC)): 0.71 µg/mL; PD50 (S. schottmuelleri; oral): 5.4 mg/kg; PD50 (S. schottmuelleri; subcutaneous): 2.4 mg/kg; MBC (Salmonella typhosa; read-out: Minimum Inhibitory Concentration (MBC), MBC, Salmonella typhosa): 0.35 µg/mL; MIC (Salmonella typhosa; read-out: Minimum Inhibitory Concentration (MIC), Salmonella typhosa): 0.35 µg/mL; MBC [2, 4]: 0.022 µg/mL; MIC [2, 5]: 0.022 µg/mL; PD50 (S. typhosa; oral): 8 mg/kg; PD50 (S. typhosa; subcutaneous): 7.3 mg/kg"
"CCC1CC(F)C(N(C2OC(CC)CC2F)[C@@H](C(=O)N[C@@H]2C(=O)N3[C@@H]2SC(C)(C)[C@@H]3C(=O)O)c2ccc(O)cc2)O1 (relative stereo) [Compound IV, {2S-[2α,5α,6β(S*)]}-6-{bis[5-ethyl-3-fluoro-2-tetrahydrofuranylamino-(4-hydrophenyl)-acetyl]amino}-3,3-dimethyl-7-oxo-4-thia-1-azabicyclo-[3.2.0]heptane-2-carboxylic acid sodium salt]",22.1,10.4,> 0.218 µg/mL,0.027 µg/mL,0.7 mg/kg,0.9 mg/kg,0.437 µg/mL,0.218 µg/mL,0.055 µg/mL,0.055 µg/mL,3520 mg/kg,3960 mg/kg,2800 mg/kg,3.5 µg/mL,3.5 µg/mL,6 mg/kg,4.4 mg/kg,4.8,2.4,"PD50 (P. mirabilis; oral): 1.6; PD50 (P. mirabilis; subcutaneous): 0.4; PD50 (S. aureus; oral): 1.2; PD50 (S. aureus; subcutaneous): 0.34; MBC [3, 4]: 0.027 µg/mL; MIC [3, 5]: 0.013 µg/mL; PD50 (S. pneumoniae II; oral): 0.7 mg/kg; PD50 (S. pneumoniae II; subcutaneous): 0.5 mg/kg"
